Measured values published in paper PMC9987750, “Potent carbonic anhydrase I, II, IX and XII inhibition activity of novel primary benzenesulfonamides incorporating bis-ureido moieties” (Journal of Enzyme Inhibition and Medicinal Chemistry, 2023).

Tests used:
hCA II = target: T1, hCA II (Homo sapiens, UniProt P00918); assay: stopped flow CO2 hydrase assay, CA inhibition; type: biochemical; conditions: recombinant enzyme, pH 7.4, 10 min pre-incubation, from 3 different assays
T1 construct: made in house
Procedure: (§1) An SX.18 MV-R Applied Photophysics (Oxford, UK) stopped-flow instrument has been used to assay the catalytic/inhibition of various CA isozymes. […] Stock solutions of inhibitors were prepared at a concentration of 10 mM (in DMSO-water 1:1, v/v) and dilutions up to 0.01 nM done with the assay buffer mentioned above. […] Inhibitor and enzyme solutions were pre-incubated together for 10 min at room temperature prior to assay, in order to allow for the formation of the E-I complex. […] The inhibition constants were obtained by nonlinear least-squares methods using the Cheng-Prusoff equation, as reported earlier, and represent the mean from at least three different determinations.

hCA I = target: T2, hCA I (Homo sapiens, UniProt P00915); assay: stopped flow CO2 hydrase assay, CA inhibition; type: biochemical; conditions: recombinant enzyme, pH 7.4, 10 min pre-incubation, from 3 different assays
T2 construct: made in house
T2 sequence (P00915 whole entry): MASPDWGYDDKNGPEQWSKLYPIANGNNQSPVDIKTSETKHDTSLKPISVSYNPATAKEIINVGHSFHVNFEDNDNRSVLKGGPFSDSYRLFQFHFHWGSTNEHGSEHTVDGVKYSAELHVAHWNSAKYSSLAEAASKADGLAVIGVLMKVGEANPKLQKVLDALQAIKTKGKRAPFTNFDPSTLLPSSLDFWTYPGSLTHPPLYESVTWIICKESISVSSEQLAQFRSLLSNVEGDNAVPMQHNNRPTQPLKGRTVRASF
Procedure: as §1

hCA XII = target: T3, hCA XII (Homo sapiens, UniProt O43570); assay: stopped flow CO2 hydrase assay, CA inhibition; type: biochemical; conditions: recombinant enzyme, pH 7.4, 10 min pre-incubation, from 3 different assays
T3 construct: made in house
T3 sequence (O43570 25-354): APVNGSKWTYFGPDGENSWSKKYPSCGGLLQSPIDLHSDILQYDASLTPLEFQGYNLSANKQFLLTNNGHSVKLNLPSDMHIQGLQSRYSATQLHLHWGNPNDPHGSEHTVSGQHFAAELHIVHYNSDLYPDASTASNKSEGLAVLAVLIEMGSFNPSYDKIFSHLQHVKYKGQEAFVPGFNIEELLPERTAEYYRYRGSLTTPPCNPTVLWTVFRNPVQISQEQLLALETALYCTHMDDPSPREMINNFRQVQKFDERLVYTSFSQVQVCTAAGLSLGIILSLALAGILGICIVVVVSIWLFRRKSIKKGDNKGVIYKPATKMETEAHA
Procedure: as §1

hCA IX = target: T4, hCA IX (Homo sapiens, UniProt Q16790); assay: stopped flow CO2 hydrase assay, CA inhibition; type: biochemical; conditions: recombinant enzyme, pH 7.4, 10 min pre-incubation, from 3 different assays
T4 construct: made in house
Procedure: as §1

SMILES | Ki (hCA II) | Ki (hCA I) | Ki (hCA XII) | Ki (hCA IX) | melting point
NS(=O)(=O)c1ccc(NC(=O)Nc2ccc(NC(=O)Nc3ccc(S(N)(=O)=O)cc3)cc2)cc1 [Compound 8, 4,4'-(((1,4-Phenylenebis(azanediyl))bis(carbonyl))bis(azanediyl))dibenzenesulfonamide] | 680 nM | 7280 nM | 37.3 nM | 57.5 nM | > 300 °C
NS(=O)(=O)c1ccc(NC(=O)Nc2ccc(Cc3ccc(NC(=O)Nc4ccc(S(N)(=O)=O)cc4)cc3)cc2)cc1 [Compound 9, 4,4'-((((Methylenebis(4,1-phenylene))bis(azanediyl))bis(carbonyl))bis(azanediyl))dibenzenesulfonamide] | 484 nM | 6280 nM | 429 nM | 835 nM | 293 to 294 °C
Cc1ccc(NC(=O)Nc2ccc(S(N)(=O)=O)cc2)cc1NC(=O)Nc1ccc(S(N)(=O)=O)cc1 [Compound 11, 4,4'-((((4-Methyl-1,3-phenylene)bis(azanediyl))bis(carbonyl))bis(azanediyl))dibenzenesulfonamide] | 4.4 nM | 68.1 nM | 7.39 nM | 6.73 nM | 279 to 281 °C
NS(=O)(=O)c1cccc(NC(=O)Nc2ccc(NC(=O)Nc3cccc(S(N)(=O)=O)c3)cc2)c1 [Compound 12, 3,3'-(((1,4-Phenylenebis(azanediyl))bis(carbonyl))bis(azanediyl))dibenzenesulfonamide] | 550 nM | 6520 nM | 63.2 nM | 63.8 nM | > 300 °C
NS(=O)(=O)c1cccc(NC(=O)Nc2ccc(Cc3ccc(NC(=O)Nc4cccc(S(N)(=O)=O)c4)cc3)cc2)c1 [Compound 13, 3,3'-((((Methylenebis(4,1-phenylene))bis(azanediyl))bis(carbonyl))bis(azanediyl))dibenzenesulfonamide] | 306 nM | 9170 nM | 27.7 nM | 78.7 nM | 293 to 295 °C
Cc1cc(-c2ccc(NC(=O)Nc3cccc(S(N)(=O)=O)c3)c(C)c2)ccc1NC(=O)Nc1cccc(S(N)(=O)=O)c1 [Compound 14, 3,3'-((((3,3'-Dimethyl-[1,1'-biphenyl]-4,4'-diyl)bis(azanediyl))bis(carbonyl))bis(azanediyl))dibenzenesulfonamide] | 637 nM | 688 nM | 67.9 nM | 578 nM | > 300 °C
Cc1ccc(NC(=O)Nc2cccc(S(N)(=O)=O)c2)cc1NC(=O)Nc1cccc(S(N)(=O)=O)c1 [Compound 15, 3,3'-((((4-Methyl-1,3-phenylene)bis(azanediyl))bis(carbonyl))bis(azanediyl))dibenzenesulfonamide] | 80.8 nM | 5000 nM | 67.1 nM | 81.1 nM | 233 to 234 °C

More lines, now with the values ahead:

Ki (hCA II) | Ki (hCA I) | Ki (hCA XII) | Ki (hCA IX) | melting point | SMILES
302 nM | 947 nM | 52.3 nM | 86.4 nM | > 300 °C | Cc1cc(-c2ccc(NC(=O)Nc3ccc(S(N)(=O)=O)cc3)c(C)c2)ccc1NC(=O)Nc1ccc(S(N)(=O)=O)cc1 [Compound 10, 4,4'-((((3,3'-Dimethyl-[1,1'-biphenyl]-4,4'-diyl)bis(azanediyl))bis(carbonyl))bis(azanediyl))dibenzenesulfonamide]
424 nM | 2910 nM | 82.8 nM | 68.7 nM | > 300 °C | NS(=O)(=O)c1ccc(CCNC(=O)Nc2ccc(NC(=O)NCCc3ccc(S(N)(=O)=O)cc3)cc2)cc1 [Compound 16, 4,4'-((((1,4-Phenylenebis(azanediyl))bis(carbonyl))bis(azanediyl))bis(ethane-2,1-diyl))dibenzenesulfonamide]
792 nM | 5350 nM | 33.6 nM | 91.9 nM | 270 to 272 °C | NS(=O)(=O)c1ccc(CCNC(=O)Nc2ccc(Cc3ccc(NC(=O)NCCc4ccc(S(N)(=O)=O)cc4)cc3)cc2)cc1 [Compound 17, 4,4'-(((((Methylenebis(4,1-phenylene))bis(azanediyl))bis(carbonyl))bis(azanediyl))bis(ethane-2,1-diyl))dibenzenesulfonamide]
604 nM | 8310 nM | 60.3 nM | 93.7 nM | > 300 °C | Cc1cc(-c2ccc(NC(=O)NCCc3ccc(S(N)(=O)=O)cc3)c(C)c2)ccc1NC(=O)NCCc1ccc(S(N)(=O)=O)cc1 [Compound 18, 4,4'-(((((3,3'-Dimethyl-[1,1'-biphenyl]-4,4'-diyl)bis(azanediyl))bis(carbonyl))bis(azanediyl))bis(ethane-2,1-diyl))dibenzenesulfonamide]
25.8 nM | 95.4 nM | 5.02 nM | 8.92 nM | 245 to 247 °C | Cc1ccc(NC(=O)NCCc2ccc(S(N)(=O)=O)cc2)cc1NC(=O)NCCc1ccc(S(N)(=O)=O)cc1 [Compound 19, 4,4'-(((((4-Methyl-1,3-phenylene)bis(azanediyl))bis(carbonyl))bis(azanediyl))bis(ethane-2,1-diyl))dibenzenesulfonamide]
